Test results taken from patent publication US11219625B2, “Inhibitors of N-linked glycosylation and methods using same” (YALE UNIVERSITY, priority 2015, dated 2022).

Tests used:
Assay type in all cases: cell-based
[1] = test system: lipid linked oligosaccharides (LLOs); experiment: FACE analysis of lipid linked oligosaccharides; conditions: p<0.01
Protocol: Fluorophore assisted carbohydrate electrophoresis (FACE) was performed as previously described (Gao, et al., Glycobiology 2002, 12, 353-360; Gao, et al., J Biol Chem 2005, 280, 17901-17909). Control (Ac-Gln-Tyr-Thr-CONH2) and acceptor (Ac-Asn-Tyr-Thr-CONH2) peptides were used for permeabilized cell experiments. Metabolic labeling of Hela cells, transfection of prosaposin (pSAP) and steroid hormone binding globulin (SHBG) vectors, and knockdown of SIT3A and STT3B to monitor N-linked glycosylation knockdown were performed as described (Shrimal, et al., J Cell Biol 2013, 201, 81-95). Western blot analysis was performed as previously described (Bennett, et al., Transl Oncol 2013, 6, 382-391). The following primary antibodies were used: rabbit anti-EGFR (sc-03; Santa Cruz Biotechnology; 1:1000), rabbit anti-phospho (Tyr1173) EGF Receptor (Cell Signaling; 1:1000), rabbit anti-p21 Waf1/Cip1 (12D1; Cell Signaling; 1:1000), rabbit anti-Cyclin D1 (Cell Signaling; 1:1000), mouse anti-β-Actin (8H10D10; Cell Signaling; 1:1000). For phospho-protein array analysis, PC9 and A549 cells were cultured in 6-well plates in serum-containing medium and treated with or without 10 μM NGI-1 for 24 hours. […]

[2] = test system: FGFR1; experiment: Western blot of FGFR phosphorylation, H1581 and H2444 cells; conditions: H1581 and H2444, FIG. 4F
Protocol: FIGS. 4A-4H illustrate the finding that NGI-1 blocks RTK driven proliferation. FIG. 4A illustrates western blot analysis of EGFR phosphorylation (Y1173) and gel mobility in PC9 (EGFR-mutant) and A549 (k-ras mutant) NSCLC cells after 10 μM NGI-1 treatment for 24 h. […] Actin expression was used as a control for protein loading. FIG. 4B illustrates MTT assays results of PC9 following treatment with 10 μM NGI-1 or 1 μM tunicamycin for a total of 5 d. Relative proliferation id reported in fold increase from day 0. FIG. 4C illustrates MTT assays results of A549 following treatment with 10 μM NGI-1 or 1 μM tunicamycin for a total of 5 d. Relative proliferation id reported in fold increase from day 0. FIG. 4D illustrates protein phosphorylation profiles of PC9 cells analyzed by phospho-protein array to assess the response of PC9 to 10 μM NGI-1 for 24 h. FIG. 4E illustrates protein phosphorylation profiles of A549 cells analyzed by phospho-protein array to assess the response of A549 to 10 μM NGI-1 for 24 h. FIG. 4F illustrates western blot analysis of FGFR phosphorylation (Y653/654) and gel mobility for H1581 (TKI sensitive) and H2444 (TKI insensitive) NSCLC cell lines. […] FIG. 4G illustrates MTT assays for H1581 cells treated with 10 μM NGI-1 for 5 d. Asterisk (***) indicates a significant difference p<0.001 for MTT. FIG. 4H illustrates MTT assays for H2444 cells treated with 10 μM NGI-1 for 5 d. […]

[3] = test system: PC9 cells; experiment: Cell cycle distribution by flow cytometry, PC9; conditions: PC9, NGI-1 24 h; control 65%; p<0.01
Protocol: FIGS. 5A-5G illustrate NGI-1 induces G1 arrest and senescence in EGFR addicted tumor cells. FIG. 5A illustrates cell cycle distribution of PC9 cells after 24 h NGI-1 treatment for 24 h determined by flow cytometry. […] FIG. 5B illustrates cell cycle distribution of A549 cells after 24 h NGI-1 treatment for 24 h determined by flow cytometry. FIG. 5C illustrates western blot time course of cyclin D1 expression in PC9 and A549 cells after NGI-1 treatment. FIG. 5D illustrates quantitative real-time PCR analysis of PC9 and A549 cells. A time course of cyclin D1 expression levels relative to GAPDH is represented. […] FIG. 5F illustrates senescence of PC9 cells explored by: cell autofluorescence, measured by flow cytometry using a detector for PE/YFP; lipofuscin accumulation, detected by confocal laser scanning microscopy using an excitation laser of 405 nm with acquired signals from spectrums of yellow 575-620 nm; and morphology changes, enlarged vs. flattened. […] Significance was calculated using a T test (*p<0.05. **p<0.01). FIG. 5G illustrates senescence of A549 cells explored by: cell autofluorescence, measured by flow cytometry using a detector for PE/YFP; lipofuscin accumulation, detected by confocal laser scanning microscopy using an excitation laser of 405 nm with acquired signals from spectrums of yellow 575-620 nm; and morphology changes, enlarged vs. flattened. […]

Compound: Cc1cnc(NC(=O)c2cc(S(=O)(=O)N(C)C)ccc2N2CCCC2)s1 [NGI-1, 5-(N,N-Dimethylsulfamoyl)-N-(5-methylthiazol-2-yl)-2-(pyrrolidin-1-yl)benzamide]
- increase of Glc3Man9Glcnac2 LLO levels [1]: 31%
- FGFR1 phosphorylation [2]: blocked FGFR1 phosphorylation
- cells in G1 [3]: 90%
